From article PMC3996484, “Apoptosis Therapy in Cancer: The First Single-molecule Co-activating p53 and the Translocator Protein in Glioblastoma” (Scientific Reports, 2014)
Like-named read-outs stand apart in the source and are kept apart here.

Assays:
[1] = target: T1, native human MDM2/p53 complex (Homo sapiens, UniProt Q00987); experiment: ELISA-based dissociation of native MDM2/p53 complex in U87MG cell lysates; assay type: biochemical
T1 construct: U87MG cell lysates, containing the native MDM2/p53 complex; endogenous in cells; host or cells: U87MG human glioblastoma cells
Method: After extensive washes, levels of the MDM2/p53 complex were quantified using an antibody specific for p53, and subsequently an HRP-conjugated antibody and a TMB substrate kit. (C), (D) U87MG cell lysates, containing the native MDM2/p53 complex, were pre-incubated with DMSO (control) or different concentrations of the indicated compounds. Then, lysates were captured on wells pre-coated with MDM2 antibody. After extensive washes, levels of the MDM2/p53 complex were quantified using an antibody specific for p53, and subsequently an HRP-conjugated antibody and a TMB substrate kit. Blank wells were obtained in the absence of p53 antibody. Data are expressed as absorbance at 450 nm minus blank values (A), (B), or as % of control set to 100% (C), (D), and represent the mean ± SEM of at least three independent experiments.
To test the ability of new compound to dissociate the native MDM2/p53 complex, a quantitative sandwich immune-enzymatic assay, on crude cell lysates obtained from U87 MG cells was developed. […] The TMB substrate kit (Thermo Fisher Scientific) allowed a colorimetric quantification of the MDM2/p53 complex. […] Absorbance's values at 450 nm were measured, background subtracted and sigmoid dose-response curves were generated using Graph Pad Prism 4 software, from which IC50 values of MDM2/p53 complex were derived.

U87MG cells [2] = experiment: Δψm dissipation in intact cells (JC-1, mitochondria isolated after cell treatment); details: for Δψm dissipation: 10 μM, 24 h of cell treatment; for Δψm dissipation vs control: intact cells, 5 μM, 24 h
U87MG cells [3] = experiment: Annexin V and 7-AAD staining (apoptosis); assay type: cell-based, human
Method: Dual staining with Annexin V coniugated to fluorescein-isothiocyanate (FITC) and 7-amino-actinomysin (7-AAD) was performed using the commercially available kit (Muse Annexin V and Dead Cell Kit; Merck KGaA, Darmstadt, Germany). […] Both floating and adherent cells were collected, centrifuged at 300 × g for 5 minutes and suspended in cell culture medium. Then, a 100 μl aliquot of cell suspension (about 5 × 10^4 cell/ml) was added to 100 μl of fluorescent reagent and incubated for 10 minutes at room temperature. After incubation, the percentages of living, apoptotic and dead cells were acquired and analyzed by Muse™ Cell Analyzer in accordance to the manufacture's guidelines. In cells undergoing apoptosis, annexin V binds to phosphatidylserine, which translocates to the outer leaflet of the cytoplasmatic membrane. Double staining is used to distinguish between viable, early apoptotic, and necrotic or late apoptotic cells. Annexin V:FITC […] cells were identified as early apoptotic. Cells which were Annexin V-FITC positive and 7-AAD positive were identified as cells in late apoptosis or necrotic.

U87MG cells [4] = experiment: Cell viability, Trypan blue exclusion assay; assay type: cell-based, human
Method: Each experiment was performed in duplicate. […] Each experiment was performed in duplicate.
The effects of compound treatment on U87MG cell viability were evaluated by Trypan blue exclusion assays. Briefly harvested cells were mixed with an equal volume of 0.4% trypan blue dye. For quantization of cell viability, blue and bright cells were counted, and viability was calculated as the percentage of live (bright) cells versus control set to 100%. U87MG cells were treated with different concentrations (10 nM–10 μM) of each compound and after 24 h of incubation viable cells were counted.

[5] = system: mitochondria isolated from the human GBM cell line U87MG; experiment: Δψm dissipation in isolated mitochondria (JC-1); assay type: biochemical; details: isolated treated mitochondria, 5 μM, 15 min
Method: (§1) Figure 3 New synthesized compounds bind to TSPO and induce Δψm collapse. (A) [^3H]PK11195 radioligand binding: membranes homogenates obtained from kidney (20 μg of proteins) were incubated with 0.6 nM [^3H]PK11195 and different compounds concentration. Reaching equilibrium, samples were filtered and bound radioactivity was counted. […] (B) Evaluation of Δψm in isolated mitochondria: Mitochondria (5 μg of proteins) were treated with compound 1 (5 μM), or compound 7 (5 μM), or DMSO (control) for 15 min. […] Each experiment was performed in duplicate.
Several evidences have shown that TSPO is a constituent of the MPTP, taking therefore part in dissipation of Δψm that occurs after MPTP opening, as well as in the release of proapoptotic inter-membrane proteins and in the induction of apoptosis. To assess whether compounds 1 and 7 could modulate MPT-pore opening through their selective binding to TSPO, Δψm was measured in mitochondria isolated from the human GBM cell line U87MG.

U87MG cells [6] = experiment: Senescence marker SA-β-Gal; assay type: cell-based, human; details: 5 μM, 24 h
Source text: The senescence marker SA-β-Gal was detected as previously described[16] and cells were then washed in PBS (1×) and photographed at 100× magnification. Images of random light microscopic fields were captured (5 fields per well), and both blue and total cells were counted using ImageJ (ImageJ Software, version 1.41; USA).

TSPO = target: T2, TSPO (Rattus norvegicus, UniProt P16257); experiment: Competitive [3H]PK11195 radioligand binding assay; details: membrane homogenates from kidney, 0.6 nM [3H]PK11195; read-out: Ki, displacement of specific [3H]PK11195 binding
T2 construct: membranes homogenates obtained from kidney (20 μg of proteins) were incubated with 0.6 nM; from tissue; host or cells: kidney (crude mitochondrial membranes)
Method: as §1
Binding studies were performed as previously described. Briefly, crude mitochondrial membranes, in 50 mM Tris-HCl pH 7.4 buffer, were incubated with 0.6 nM [^3H]PK 11195 in the presence of new synthesized compounds (0.1 nM–10 μM) in a final volume of 0.5 ml for 90 min at 4°C. Incubations were terminated by rapid filtration through GF/C glass fiber filters and washed three times with 4 ml of cold buffer. The radioactivity was measured by liquid scintillation counter. Non-specific binding was estimated in the presence of unlabeled 1 μM PK 11195. IC50 value was determined using Graph-Pad Prism computer program (Graph Pad Software, version 5.0; San Diego, CA).

[7] = system: p53 target genes (MDM2, p21, PUMA) in U87MG cells; experiment: Relative mRNA quantification of p53 target genes (real-time RT-PCR); assay type: cell-based, human; details: for mRNA levels of p53 target genes (MDM2 and p21): 5 μM
Method: The assessment of p53 target gene mRNA levels was performed by real-time reverse transcription polymerase chain reaction (real-time RT-PCR)[16]. In brief, total RNA was extracted from control cells as well as from cells treated with compounds (5 μM) for different hours, using Rneasy® Mini Kit (Qiagen, Hilden, Germany) according to manufacturer's instructions. Purity of the RNA samples was determined by measuring the absorbance at 260:280 nm. cDNA synthesis was performed with 500 ng of RNA using i-Script cDNA synthesis kit (BioRad, Hercules, USA) following manufacturer's instructions. […] RT-PCR reactions consisted of 25 μL Fluocycle® II SYBR® (Euroclone, Milano, Italy), 1.5 μL of both 10 μM forward and reverse primers, 3 μL cDNA, and 19 μL of H2O. All reactions were performed for 40 cycles using 55°C as annealing temperature. The p53 target gene mRNA levels for each sample were normalized against β-actin mRNA levels, and relative expression was calculated by using Ct value. PCR specificity was verified by both the melting curve analysis and gel electrophoresis.

[8] = Precipitation in NMR sample; assay type: physicochemical; details: added from DMSO stock, 20 mM TrisHCl, 150 mM KCl, pH 7.4
Method: NMR spectra were acquired at 25°C on a Varian Unity INOVA 700 MHz spectrometer equipped with a cryoprobe. NMR samples contained 0.1 mM of proteins in 20 mM TrisHCl, 150 mM KCl, pH 7.4, 5 mM β-mercaptoethanol, 0.02% NaN3. Water suppression was carried out by gradient echo[39]. NMR data were processed using the Bruker program BioSpin 3.0. For NMR ligand binding experiments, 300 μL of the protein sample containing 10% D2O, at a concentration of about 0.1 mM, and a 10 mM stock solution of compounds 7 and 1 in DMSO-d6 were used. The formal final molar ratio protein:inhibitor was 1:2.

[9] = system: p53 protein levels in U87MG cells; experiment: p53 protein levels by Western blot; assay type: cell-based, human; details: 8 h incubation
Method: Figure 6 New synthesized compounds induce p53 protein accumulation by dissociation of MDM2/p53 complex and stimulate transcription of p53 target genes in U87MG cells. […] Lysates were subjected to Western blot analysis using antibody to p53 (FL-393; Santa Cruz Biotechnology). […] The MDM2/p53 complex and the relative input of the proteins were detected by immunoblot. One representative Western blot is presented (left panel). […] (D) Relative mRNA quantification of p53 target genes: The relative mRNA quantification of p53 target genes (p21 and MDM2) was performed by real-time RT-PCR as describe in Methods. […] Each experiment was performed in duplicate.
The western blot analysis for the evaluation of p53 protein levels was performed as previously described. […] 30 μg of each sample was then resolved by SDS-PAGE (8.5%), transferred to PVDF membranes and probed overnight at 4°C with primary antibody anti-p53 (FL-393; Santa Cruz Biotechnology; 1:500). The primary antibody was detected using anti-rabbit IgG light chains conjugated to peroxidase (diluted 1:10.000). The peroxidase was detected using a chemioluminescent substrate (ECL, Perkin Elmer). Densitometric analysis of immunoreactive bands was performed using Image J Software.

[10] = target: T3, recombinant human MDM2/p53 complex (Homo sapiens, UniProt Q00987); experiment: NMR dissociation (AIDA) of recombinant MDM2/p53 complex; assay type: binding; details: 0.2 mM formal final concentration, complex 0.1 mM
T3 construct: N-terminal region of MDM2 (residues 1–118); His-tag; made in house; host or cells: Escherichia coli BL21(DE3) RIL
T3 sequence (Q00987 1-118, one chain of several): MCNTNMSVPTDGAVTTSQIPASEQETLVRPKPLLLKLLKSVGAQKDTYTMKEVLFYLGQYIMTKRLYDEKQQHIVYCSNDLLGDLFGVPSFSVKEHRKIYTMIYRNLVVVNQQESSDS
Source text: The method, named AIDA (for Antagonist Induced Dissociation Assay[26][27]), can work with complex made by a large protein fragment (larger than 30 kDa) and a small reporter protein (less than 20 kDa). AIDA makes use of two-dimensional^15N-HSQC spectra, however, in the presence of flexible protein residues, 1D proton NMR spectra may be sufficient for monitoring the states of the complex upon addition of ligands. Since the N-terminal domain of p53 is highly flexible, MDM2/p53 complex is suitable for 1D proton NMR application[26][28][29]. Particularly, the signals from ^NH^ε side chains of W23 and W53 are sharp in the free p53 1D proton spectrum. After the complex formation, W23 signal disappears, since W23 comprises the primary binding site for MDM2. In fact, residues 17–26 of p53 participate in well-defined structures of large MDM2/p53 complexes. In contrast, W53 is still not structured when p53 binds MDM2[26].
NMR spectra were acquired at 25°C on a Varian Unity INOVA 700 MHz spectrometer equipped with a cryoprobe. […] Water suppression was carried out by gradient echo[39]. NMR data were processed using the Bruker program BioSpin 3.0.

T1 sequence (Q00987 whole entry, one chain of several): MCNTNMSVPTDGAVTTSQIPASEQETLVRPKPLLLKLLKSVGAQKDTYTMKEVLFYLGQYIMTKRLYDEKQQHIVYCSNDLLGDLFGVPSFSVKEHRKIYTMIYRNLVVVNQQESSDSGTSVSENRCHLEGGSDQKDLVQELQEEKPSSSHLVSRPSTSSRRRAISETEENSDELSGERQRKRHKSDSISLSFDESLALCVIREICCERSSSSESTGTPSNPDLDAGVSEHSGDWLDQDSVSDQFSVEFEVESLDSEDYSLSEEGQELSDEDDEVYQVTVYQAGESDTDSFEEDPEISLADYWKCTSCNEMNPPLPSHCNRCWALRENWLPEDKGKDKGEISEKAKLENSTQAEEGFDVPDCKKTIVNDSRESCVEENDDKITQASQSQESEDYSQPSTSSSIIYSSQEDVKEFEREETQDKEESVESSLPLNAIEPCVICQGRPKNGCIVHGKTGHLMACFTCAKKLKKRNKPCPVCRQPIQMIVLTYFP

Structure (SMILES)	IC50 [1]	Δψm dissipation (U87MG cells [2])	Δψm dissipation vs control [5]	Δψm dissipation vs control (U87MG cells [2])	Ki (TSPO)	mRNA levels of p53 target genes (MDM2 and p21) [7]	concentration at which p53 accumulation became significant [9]	also measured
O=C1[C@@H]2CS[C@@]3(C(=O)Nc4ccccc43)N2C(=O)N1Cc1ccc(Cl)cc1 [ISA27, reference compound]	122 ± 14.5 nM	–	–	–	–	–	–	–
COc1ccc(C2=N[C@@H](c3ccc(Cl)cc3)[C@@H](c3ccc(Cl)cc3)N2C(=O)N2CCNC(=O)C2)c(OC(C)C)c1 [Nutlin-3, reference compound]	–	only a marginal effect	–	–	–	–	–	induction of specific apoptotic parameters (Annexin V, PUMA mRNA) (U87MG cells [3]; 10 μM, 24 h): did not show any induction; effect on U87MG cell viability (U87MG cells [4]; 24 h): dose-dependent reduction
CCC(C)N(C)C(=O)c1cc2ccccc2c(-c2ccccc2Cl)n1 (stereo not shown) [PK11195]	–	significant Δψm dissipation	–	–	–	–	–	inhibition of cell viability vs control (U87MG cells [4]; 100 μM, 24 h, maximal effect): 52.0 ± 2.3%; concentration from which inhibition of cell viability is significant (U87MG cells [4]; 24 h): 10 µM
CCOC(=O)[C@@H](Cc1ccccc1)NC(=O)[C@H](CC(C)C)NC(=O)C(=O)c1c(-c2ccccc2)[nH]c2ccccc12 [compound 1, (2-phenylindol-3-yl)glyoxyl-L-leucine-L-phenylalanine ethylester]	–	–	20.0 ± 1.8%	47.0 ± 3.4%	438 ± 35 nM	increase significantly	5 µM	activity of the senescence marker β-galactosidase (U87MG cells [6]): no activity; phosphatidylserine externalization (early and late apoptosis) (U87MG cells [3]; 5 μM): significant phosphatidylserine externalization; increase of PUMA mRNA level ([7]; 16–24 h): approximately 4 fold; actual concentration in MDM2/p53 NMR sample (sample precipitation) [8]: lower than 0.2 mM; IC50 (U87MG cells [4]; Homo sapiens, U-87 MG, 24 h, read-out: IC50, U87MG cell survival): 2500 ± 400 nM
CC(C)C[C@H](NC(=O)C(=O)c1c(-c2ccccc2)[nH]c2ccccc12)C(=O)N[C@H](Cc1ccccc1)C(=O)O [compound 7, (2-phenylindol-3-yl)glyoxyl-L-leucine-L-phenylalanine]	202 ± 21.2 nM	–	43 ± 3.1%	60.1 ± 3.2%	759 ± 56 nM	increase significantly	5 µM	p53 release from MDM2/p53 complex (W23 peak appears) [10]: complete p53 release; IC50 (U87MG cells [4]; Homo sapiens, U-87 MG, 24 h; read-out: IC50, U87MG cell survival): 2900 ± 500 nM
